From paper PMC7619385 (ACS infectious diseases, 2025) come the findings set out here.

One test has as its target NLuc::LmxCLK1 (Leishmania mexicana, UniProt E9AMP2). Put plainly: cell-based. The test is classed as cell-based. As to conditions: for receptor occupancy at 10 µM: read-out: Target occupancy Average. In outline: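 NanoBRET tracer displacement in live cells expressing NLuc-tagged CLK1, test compounds at 10 µM fixed, 1% DMSO final. Acceptor/donor emission (610/460 nm) ratio gives mBRET, converted to blank-corrected probe occupancy (%); probe KD from single-site saturation binding fits.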

The target of test [1] is T1, LmxCLK1 (Leishmania mexicana, UniProt E9AMP2).
T1 sequence (E9AMP2 1-422): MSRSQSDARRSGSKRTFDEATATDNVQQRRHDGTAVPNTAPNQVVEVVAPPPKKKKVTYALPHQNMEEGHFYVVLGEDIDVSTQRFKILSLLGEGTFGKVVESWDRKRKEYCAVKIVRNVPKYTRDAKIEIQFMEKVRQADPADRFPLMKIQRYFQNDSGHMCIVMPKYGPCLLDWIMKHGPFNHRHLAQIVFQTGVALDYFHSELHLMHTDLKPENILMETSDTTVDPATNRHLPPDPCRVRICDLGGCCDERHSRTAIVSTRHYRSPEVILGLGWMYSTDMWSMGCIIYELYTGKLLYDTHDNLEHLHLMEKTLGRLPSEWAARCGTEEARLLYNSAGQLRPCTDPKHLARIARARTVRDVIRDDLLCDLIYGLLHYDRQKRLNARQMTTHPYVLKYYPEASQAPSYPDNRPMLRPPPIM
The test is described as follows: biochemical. The test is classed as binding.

Test [2] concerns the target T1, LmxCLK1. The test is described as follows: HTRF (TR-FRET) enzymatic inhibition assay. The test is classed as biochemical. The protocol:
The enzymatic activity of full-length LmxCLK1 was monitored using a homogenous time-resolved fluorescence (HTRF)-based assay (HTRF KinEASE-STK S3 kit, Cisbio - catalog #62ST3PEC). For IC50 value determination, the data from two independent experiments performed in duplicate were fitted to the sigmoidal dose-response (variable slope) equation available in GraphPad Prism (v. 9.1.0). Detailed information for IC50 determination can be found in the Supplementary Information. […]
min at 4 °C. The supernatants were loaded onto an immobilized metal affinity chromatography (IMAC) […]
column (5 mL HisTrap FF Crude, GE Healthcare) and washed in Binding Buffer containing 30 mM imidazole.
Proteins were eluted in Binding Buffer with 300 mM imidazole. To remove the N-terminal 6xHis-tag […]
introduced during cloning (see above), proteins were incubated with TEV protease during dialysis […]
overnight at 4 °C into Gel Filtration Buffer (20 mM HEPES, 500 mM NaCl, 5% glycerol, 0.5 mM TCEP).
Recombinant proteins were further purified using reverse affinity chromatography on Ni-Sepharose […]
followed by gel filtration (Superdex 200 16/60, GE Healthcare), and concentrated using 10 kDa molecular […]
weight cut-off centrifugal concentrators (Millipore). LmxCLK1 (CQMED clone ID LmxCLK1-cb001) and […]
NLuc-LmxCLK1 (CQMED clone ID LmxCLK1-cb021) proteins were stored at -80 °C for in vitro biochemical […]
assays at 0.5 mg/mL and 0.7 mg/mL, respectively, measured by UV absorbance with a NanoDrop […]
spectrophotometer (Thermo Scientific), using the calculated molecular weight and estimated extinction […]
Purified proteins were further analyzed by LC-ESI-MS in a XEVO G2 Sx Q-ToF (Waters). Expected intact […]
masses for LmxCLK1 (CQMED clone ID LmxCLK1-cb001) and NLuc-LmxCLK1 (CQMED clone ID LmxCLK1- […]
cb021) were: 48,791.14 Da and 68,411.71 Da, respectively.
We monitored the activity of recombinantly produced full-length LmxCLK1 (CQMED clone ID LmxCLK1- […]
cb001) using a commercially-available homogenous time-resolved fluorescence (HTRF)-based assay (HTRF […]
KinEASE-STK S3 kit, Cisbio - catalog #62ST3PEC). Assay development included establishing reaction […]
parameters (optimal enzyme concentration, ATP concentration and reaction time).
(15-point, 3-fold serial dilution and a highest final assay concentration of 10 µM) prior to transfer (100 nL) […]
to a black, 384-well, round bottom, low-volume plate (Corning catalog #4514) containing a mixture of […]
LmxCLK1 and peptide substrate in kinase buffer using an automated liquid transferring system (CYBIO […]
FeliX®, Analytik Jena, Jena, Germany). […]
started by the addition of ATP and allowed to proceed for 75 min at 30 °C. Final concentrations for reaction […]
components were: 6 nM LmxCLK1, 66 µM ATP (10× KM,ATP), 1 µM peptide (STK Substrate 3-biotin, Cisbio).
All components were prepared in 1× Enzymatic Buffer (Cisbio) supplemented with 5 mM MgCl2, 1 mM […]
DTT, 0.01% Tween-20. The reaction was stopped by the addition of Detection Buffer containing EDTA, […]
Fluorescence signal was measured using a CLARIOstar microplate reader (BMG LABTECH) with excitation […]
at 330 nm, emission at 665 nm (acceptor) and 620 nm (donor), integration delay 60 μs and integration […]
time 400 μs. All reactions were done in duplicate and two independent experiments were performed.
Enzyme activity was expressed as the background-corrected HTRF ratio of the acceptor and donor […]
emission signals according to equation [1]:
(also on this page, place not known: imi dazole. Ni -Sepharose background -corrected (665/620)=3Acceptor!!"#$ −backgroundD.10,000 Downloaded from http://pubs.acs.org/aidcbc/article-supplement/3662943/pdf/id5c00610_si_001/ by guest on 07 August 2026) […]
where background is the background fluorescence obtained in the absence of enzyme (blank).
To determine IC50 values, the background-corrected HTRF ratio was plotted as a function of test
On the technique in general: TR-FRET usually uses a lanthanide donor and a delayed reading to cut background.

Where [3] appears, read: purified LmxCLK1, 30-min pre-incubation, 66 µM ATP, read-out: IC50 enzymatic inhibition of LmxCLK1.

Molecules are shown by their SMILES. Where two headings read alike, the source gives them in different places.

Broadly, the IC50 is the midpoint of a concentration-inhibition curve. The term ΔTm denotes the shift of the melting midpoint relative to a reference. In the case of `Cc1ccc(C(=O)Nc2ccc(CN3CCN(C)CC3)c(C(F)(F)F)c2)cc1C#Cc1cnc2[nH]ncc2c1` [GZD824], the half-inhibitory concentration (IC50) at NLuc::LmxCLK1 was found to be 4600 nM; on LmxCLK1 [2] (IC50 enzymatic inhibition of LmxCLK1, purified LmxCLK1, 30-min pre-incubation, 66 µM ATP), 29.9 nM. In addition, the receptor occupancy at 10 µM at NLuc::LmxCLK1 was 46.5 ± 3.2%. The ΔTm at 10 µM at LmxCLK1 [1] (DSF, 10 µM compound, 2 µM LmxCLK1, Run 1, read-out: ΔTm Run 1) came out at 17.1 °C; on LmxCLK1 [1] (DSF, 10 µM compound, 2 µM LmxCLK1, Run 2, read-out: ΔTm Run 2), 17.7 °C; on LmxCLK1 [1] (DSF, 10 µM compound, 2 µM LmxCLK1, mean of two runs, read-out: ΔTm Average) it was 17.4 ± 0.3 °C.

As for `C=CC(=O)Nc1cccc(Oc2nc(Nc3ccc(N4CCN(C)CC4)cc3)ncc2Cl)c1` [WZ3146], the results for the IC50 on NLuc::LmxCLK1 and at LmxCLK1 [2] (setting [3]) were 13600 nM and 340 nM, respectively. Further, the receptor occupancy at 10 µM on NLuc::LmxCLK1 stood at 35.2 ± 3.3%. In addition, the ΔTm at 10 µM came to 14.3 ± 0.1 °C at LmxCLK1 [1] (read-out: ΔTm Average), 14.2 °C at LmxCLK1 [1] (read-out: ΔTm Run 1) and 14.4 °C on LmxCLK1 [1] (read-out: ΔTm Run 2).

For the molecule `C=CC(=O)Nc1cccc(Sc2nc(Nc3ccc(N4CCN(C)CC4)cc3)ncc2Cl)c1` [WZ8040], the IC50 at NLuc::LmxCLK1 was determined as 2900 nM; on LmxCLK1 [2] (pre-incubation 0 min, read-out: Time-dependent IC50) it was 1660 nM; on LmxCLK1 [2] (pre-incubation 5 min, read-out: Time-dependent IC50) it was 940 nM; at LmxCLK1 [2] (pre-incubation 10 min, read-out: Time-dependent IC50) it was 911 nM; at LmxCLK1 [2] (pre-incubation 15 min, read-out: Time-dependent IC50), 862 nM; at LmxCLK1 [2] (pre-incubation 30 min, read-out: Time-dependent IC50) it was 759 nM. Also, at LmxCLK1 [2] (setting [3]), the IC50 is 204 nM. Besides, the receptor occupancy at 10 µM at NLuc::LmxCLK1 was 60.8 ± 0.8%. Also, the results for the ΔTm at 10 µM on LmxCLK1 [1] (read-out: ΔTm Average), on LmxCLK1 [1] (read-out: ΔTm Run 1) and at LmxCLK1 [1] (read-out: ΔTm Run 2) were 14.8 ± 0.1 °C, 14.7 °C and 15 °C, respectively.
